The test system of test [1] is rats. To be noted: rats on a choline-deficient L-amino acid-defined diet; cited from earlier work.
The subject of test [2] is COPD macrophages and alveolar macrophages from cigarette smoke-exposed mice. The note with it: cited from earlier work.
A further test relates to mice. To be noted: NRF2 wild-type and KO mice after administration; cited from earlier work.
For test [3], the system named is rats. The note with it: cerebral ischemia-reperfusion model; cited from earlier work.
Test [4] has as its system NQO1 specific enzyme activity in BEAS-2B cells. Put plainly: BEAS-2B NQO1 MTT assay. It is filed as cell-based. The note with it: BEAS-2B cells, 48 hours with compound, MTT readout, read-out: EC50 of NQO1 specific activity induction. An outline of the steps:
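NQO1 specific activity, an NRF2 activation marker, read kinetically as absorbance change at 570 nm for 30 min after MTT cocktail addition to crude lysates of BEAS-2B cells exposed 48 h to compound. Three-parameter fit of Delta OD/min against log concentration gives EC50; lysate portion used for Cell Titer Glo.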

Molecules are shown by their SMILES. Where a name gives a salt, the structure may show the parent alone. Read-outs that look alike come from different tables or passages of the source. Where only a bound is given, the exact number is not on record here.

For `O=C(NCc1ccccn1)Nc1nnc(-c2ccco2)o1` [NK-252], in the test with rats [1], the “progression of histologic abnormalities, especially hepatic fibrosis” value is recorded as “significantly attenuated progression of histologic abnormalities”. For `Cc1c(-c2cnccn2)ssc1=S` [oltipraz], the “progression of histologic abnormalities, especially hepatic fibrosis” value in the test on rats [1] was “significantly attenuated progression of histologic abnormalities”. Take `C[S+]([O-])CCCCN=C=S` (centres unmarked) [Sulforaphane]: in test [2] (COPD macrophages and alveolar macrophages from cigarette smoke-exposed mice), the “expression of Macrophage Receptor with Collagenous structure (MARCO)” value was “increases the expression of Macrophage Receptor with Collagenous structure (MARCO)”. For the same compound, in test [2] (Pseudomonas aeruginosa, non-typable Haemophilus influenzae, ex vivo and in vivo), the “bacterial phagocytosis and bacterial clearance” value is reported as “improving in these cells bacterial phagocytosis”. On to `CC(C)(C)c1cc(O)ccc1O` [tert-butylhydroquinone (tBHQ), tert-butylhydroquinone], for which, in the test on mice, the cortical glutathione levels result is on record as “increased in NRF2 wild-type but not KO mice”. Further, the cortical damage result in the test with rats [3] was “reduced cortical damage”. In the case of `CC[C@@H]1CN(Cc2cc([C@H](c3ccc4c(nnn4CC)c3C)[C@H](C)C(=O)O)ccc2C)Cc2ccccc2O1` [Example 199, (2S,3R)-3-(3-(((R)-2-Ethyl-2,3-dihydrobenzo[f][1,4]oxazepin-4(5H)-yl)methyl)-4-methylphenyl)-3-(1-ethyl-4-methyl-1H-benzo[d][1,2,3]triazol-5-yl)-2-methylpropanoic acid], the EC50 in test [4] was in the range of 10 to 100 nM. Regarding `CCC1CCN(Cc2nccn2Cc2cc([C@H](c3ccc4c(nnn4C)c3C)C(C)C(=O)O)ccc2C)CC1` (stereo partly drawn) [Example 152, (3R)-3-(1,4-Dimethyl-1H-benzo[d][1,2,3]triazol-5-yl)-3-(3-((2-((4-ethylpiperidin-1-yl)methyl)-1H-imidazol-1-yl)methyl)-4-methylphenyl)-2-methylpropanoic Acid, Trifluoroacetic Acid Salt], the EC50 in test [4] (Homo sapiens, BEAS-2B, 48 h) fell in the range of 100 to 1000 nM. Same read-out and setting: the result for `CC[C@@H]1CN(Cc2cc(C(CC(=O)O)c3ccc4c(nnn4C)c3C)ccc2C)Cc2ccncc2O1` (stereo partly drawn) [Example 90, 3-(1,4-Dimethyl-1H-benzo[d][1,2,3]triazol-5-yl)-3-(3-(((R)-2-ethyl-2,3-dihydropyrido[4,3-f][1,4]oxazepin-4(5H)-yl)methyl)-4-methylphenyl)propanoic acid] reads 10 to 100 nM; that for `Cc1ccc(C(CC(=O)O)c2ccc3c(nnn3C)c2C)cc1CN1Cc2ccccc2O[C@H](C)C1` (stereo partly drawn) [Example 94, 3-(1,4-Dimethyl-1H-benzo[d][1,2,3]triazol-5-yl)-3-(4-methyl-3-(((R)-2-methyl-2,3-dihydrobenzo[f][1,4]oxazepin-4(5H)-yl)methyl)phenyl)propanoic Acid, Formic Acid Salt], 1 to 10 nM. Regarding `Cc1ccc(C(c2ccc3c(nnn3C)c2C)C(C)(C)C(=O)O)cc1Cn1ccnc1CN1CCCCC1` (centres unmarked) [Example 123, 3-(1,4-Dimethyl-1H-benzo[d][1,2,3]triazol-5-yl)-2,2-dimethyl-3-(4-methyl-3-((2-(piperidin-1-ylmethyl)-1H-imidazol-1-yl)methyl)phenyl)propanoate, Sodium salt], the EC50 in test [4] (Homo sapiens, BEAS-2B, 48 h) was in the range of 10 to 100 nM. Consider `CC[C@@H]1CN(Cc2cc(C(CC(=O)O)c3ccc4c(nnn4C)c3C)ccc2C)Cc2cccc(F)c2O1` (stereo partly drawn) [Example 80, 3-(1,4-Diemthyl-1H-benzo[d][1,2,3]triazol-5-yl)-3-(3-(((R)-2-ethyl-9-fluoro-2,3-dihydrobenzo[f][1,4]oxazepin-4(5H)-yl)methyl)-4-methylphenyl)propanoic acid, formic acid salt], for which, in test [4] (Homo sapiens, BEAS-2B, 48 h), the EC50 lay in the range of 10 to 100 nM.

`Cc1ccc([C@@H](CC(=O)O)c2ccc3c(nnn3C)c2C)cc1CN1Cc2ccc(F)cc2OC(C)(C)C1` [Example 59, (R)-3-(1,4-Dimethyl-1H-benzo[d][1,2,3]triazol-5-yl)-3-(3-((8-fluoro-2,2-dimethyl-2,3-dihydrobenzo[f][1,4]oxazepin-4(5H)-yl)methyl)-4-methylphenyl)propanoic acid]: the EC50 in test [4] (Homo sapiens, BEAS-2B, 48 h) is 10 to 100 nM. On the same count and under the same terms, the result for `Cc1ccc(C(CC(=O)O)c2ccc3c(nnn3C)c2C)cc1Cn1ccnc1CN1CCCC1` (centres unmarked) [Example 153, 3-(1,4-Dimethyl-1H-benzo[d][1,2,3]triazol-5-yl)-3-(4-methyl-3-((2-(pyrrolidin-1-ylmethyl)-1H-imidazol-1-yl)methyl)phenyl)propanoic Acid, Formic Acid Salt] reads 1000 to 10000 nM; that for `Cc1ccc(C(c2ccc3c(nnn3C)c2C)C(C)(C)C(=O)O)cc1CN1CCCn2cncc2C1` (centres unmarked) [Example 37, 3-(3-((6,7-Dihydro-5H-imidazo[1,5-a][1,4]diazepin-8(9H)-yl)methyl)-4-methylphenyl)-3-(1,4-dimethyl-1H-benzo[d][1,2,3]triazol-5-yl)-2,2-dimethylpropanoate, Sodium salt], 1000 to 10000 nM; that for `Cc1ccc([C@@H](CC(=O)O)c2ccc3c(nnn3C)c2C)cc1CN1Cc2ncccc2OC(C)(C)C1` [Example 169, (R)-3-(1,4-Dimethyl-1H-benzo[d][1,2,3]triazol-5-yl)-3-(3-((2,2-dimethyl-2,3-dihydropyrido[2,3-f][1,4]oxazepin-4(5H)-yl)methyl)-4-methylphenyl)propanoic acid, 0.5 Formic acid salt], 10 to 100 nM.

For the compound `CC[C@@H]1CN(Cc2cc(C(c3ccc4c(nnn4C)c3C)C(C)(C)C(=O)O)ccc2C)Cc2cccnc2O1` (stereo partly drawn) [Example 113, 3-(1,4-Dimethyl-1H-benzo[d][1,2,3]triazol-5-yl)-3-(3-(((R)-2-ethyl-2,3-dihydropyrido[3,2-f][1,4]oxazepin-4(5H)-yl)methyl)-4-methylphenyl)-2,2-dimethylpropanoic Acid], the EC50 in test [4] (Homo sapiens, BEAS-2B, 48 h) lay in the range of 100 to 1000 nM. For the compound `CC[C@@H]1CN(Cc2cc([C@H](CC(=O)O)c3ccc4c(nnn4C)c3C)ccc2Cl)Cc2ncccc2O1` [Example 263, (S)-3-(4-chloro-3-(((R)-2-ethyl-2,3-dihydropyrido[2,3-f][1,4]oxazepin-4(5H)-yl)methyl)phenyl)-3-(1,4-dimethyl-1H-benzo[d][1,2,3]triazol-5-yl)propanoic acid], the EC50 in test [4] (Homo sapiens, BEAS-2B, 48 h) lay in the range of 10 to 100 nM.

In the case of `CCn1nnc2c(F)c([C@H](c3ccc(C)c(CN4Cc5ncccc5OC(C)(C)C4)c3)[C@@H](C)C(=O)O)ccc21` [Example 190, (2R,3S)-3-(3-((2,2-Dimethyl-2,3-dihydropyrido[2,3-f][1,4]oxazepin-4(5H)-yl)methyl)-4-methylphenyl)-3-(1-ethyl-4-fluoro-1H-benzo[d][1,2,3]triazol-5-yl)-2-methylpropanoic Acid], the EC50 in test [4] (Homo sapiens, BEAS-2B, 48 h) is 1 to 10 nM. On to `Cc1ccc(C(c2ccc3c(nnn3C)c2C)C(C)(C)C(=O)O)cc1CN1CCOc2ccccc2C1` (centres unmarked) [Example 44, 3-(3-((2,3-Dihydrobenzo[f][1,4]oxazepin-4(5H)-yl)methyl)-4-methylphenyl)-3-(1,4-dimethyl-1H-benzo[d][1,2,3]triazol-5-yl)-2,2-dimethylpropanoic Acid, Formic Acid Salt], for which, in test [4] (Homo sapiens, BEAS-2B, 48 h), the EC50 lay in the range of 10 to 100 nM. The same measure, in the same setting: in the case of `CCC1CCC(Cc2nccn2Cc2cc(C(CC(=O)O)c3ccc4c(nnn4C)c3C)ccc2C)CC1` (centres unmarked) [Example 132, 3-(1,4-Dimethyl-1H-benzo[d][1,2,3]triazol-5-yl)-3-(3-((2-((4-ethylcyclohexyl)methyl)-1H-imidazol-1-yl)methyl)-4-methylphenyl)propanoic Acid] it was 1000 to 10000 nM; in that of `CCn1nnc2c(F)c([C@H](c3ccc(C)c(CN4Cc5cccnc5OC(C)(C)C4)c3)[C@@H](C)C(=O)O)ccc21` [Example 195, (2R,3S)-3-(3-((2,2-Dimethyl-2,3-dihydropyrldo[3,2-f][1,4]oxazepin-4(5H)-yl)methyl)-4-methylphenyl)-3-(1-ethyl-4-fluoro-1H-benzo[d][1,2,3]triazol-5-yl)-2-methylpropanoic acid], 10 to 100 nM. For the compound `Cc1ccc(C(CC(=O)O)c2ccc3c(nnn3C)c2C)cc1CN1Cc2ccc(C#N)cc2OC(C)(C)C1` (single isomer, unassigned) [Example 174], the EC50 in test [4] lay in the range of 10 to 100 nM.

For `COc1cc(C(CC(=O)O)c2ccc(Cl)c(CN3CCCC(n4cccn4)C3)c2)c(C)c2nnn(C)c12` (centres unmarked) [Example 164, 3-(3-((3-(1H-pyrazol-1-yl)piperidin-1-yl)methyl)-4-chlorophenyl)-3-(7-methoxy-1,4-dimethyl-1H-benzo[d][1,2,3]triazol-5-yl)propanoic Acid, Formic Acid Salt], in test [4] (Homo sapiens, BEAS-2B, 48 h), the EC50 was 100 to 1000 nM. For `CC[C@@H]1CN(Cc2cc(C(c3ccc4c(c3)nnn4C)C(C)(C)C(=O)O)ccc2C)Cc2ccccc2O1` (stereo partly drawn) [Example 103, Ammonium 3-(3-(((R)-2-Ethyl-2,3-dihydrobenzo[f][1,4]oxazepin-4(5H)-yl)methyl)-4-methylphenyl)-2,2-dimethyl-3-(1-methyl-1H-benzo[d][1,2,3]triazol-5-yl)propanoate], in test [4] (Homo sapiens, BEAS-2B, 48 h), the EC50 was under 1 nM.

As to `CCn1nnc2c(C)c([C@H](c3ccc(C)c(CN4Cc5ccccc5OC(C)(C)C4)c3)[C@@H](C)C(=O)O)ccc21` [Example 208, (2R,3S)-3-(3-((2,2-Dimethyl-2,3-dihydrobenzo[f][1,4]oxazepin-4(5H)-yl)methyl)-4-methylphenyl)-3-(1-ethyl-4-methyl-1H-benzo[d][1,2,3]triazol-5-yl)-2-methylpropanoic acid, 2 Trifluoroacetic Acid Salt], in test [4] (Homo sapiens, BEAS-2B, 48 h), the EC50 was in the range of 1 to 10 nM.

The values are drawn from US10604509B2, “Nrf2 regulators” (GlaxoSmithKline Intellectual Property Development Limited, priority 2015, dated 2020).
